Assay results taken from patent US20190224166A1, “Compositions and Methods for Treating Muscle Loss” (Augusta University Research Institute, Inc., priority 2018, published 2019).

Test system: quadriceps muscle
Assay: Proteomic analysis of quadriceps muscle of aged mice treated with 1-methyl-D-tryptophan (Table 1, TOPPGENE enrichment)
Format: in vivo
Procedure: Female mice 22 months of age were obtained from the National Institute on Aging and treated with saline (vehicle) or 1-methyl-D-tryptophan (1-MT, Sigma, 452483, lot#MKBZ1441V) at a low dose (10 mg/kg BW) or at a high dose (100 mg/kg BW). Mice were treated daily for 4 weeks. Treatments were administered i.p. with an injection volume of 0.2 ml following IACUC approved procedures. Mice were euthanized by CO2 overdose and muscles harvested for analysis. One quadriceps muscle was snap frozen for proteomics and the other quadriceps muscle fixed in buffered formalin for paraffin embedding and trichrome staining. The tibialis anterior was placed in PBS for amplex red assay.
The IDO inhibitor, 1-methyl-D-tryptophan, blocks kynurenine production and reduces levels of ROS in muscle.

**Q.** Which results are given for `Cn1cc(C[C@@H](N)C(=O)O)c2ccccc21` [1MT]?
**A.** 1MT vs Control: UTP--glucose-1-phosphate uridylyltransferase (Q91ZJ5, GN = Ugp2): 0.9036; 1MT vs Control: Trifunctional enzyme subunit beta, mitochondrial (Q99JY0, GN = Hadhb): 0.7; 1MT vs Control: Aconitate hydratase, mitochondrial (Q99KI0, GN = Aco2): 0.8406; 1MT vs Control: Electron transfer flavoprotein subunit alpha, mitochondrial (Q99LC5, GN = Etfa): 0.8462; 1MT vs Control: O-acetyl-ADP-ribose deacetylase MACROD1 (Q922B1, GN = Macrod1): 0.9167; 1MT vs Control: Nucleoside diphosphate kinase B (Q01768, GN = Nme2): 0.9242; 1MT vs Control: Transitional endoplasmic reticulum ATPase (Q01853, GN = Vcp): 0.904; 1MT vs Control: Ubiquitin-like modifier-activating enzyme 1 (Q02053, GN = Uba1): 0.5833; 1MT vs Control: Voltage-dependent L-type calcium channel subunit alpha-1S (Q02789, GN = Cacna1s): 0.7143; 1MT vs Control: ATP synthase subunit alpha, mitochondrial (Q03265, GN = Atp5a1): 0.6273; 1MT vs Control: Corticosteroid-binding globulin (Q06770, GN = Serpina6): 0.3125; 1MT vs Control: Short-chain specific acyl-CoA dehydrogenase, mitochondrial (Q07417, GN = Acads): 0.6; 1MT vs Control: Protein-arginine deiminase type-2 (Q08642, GN = Padi2): 0.3438; 1MT vs Control: Puromycin-sensitive aminopeptidase (Q11011, GN = Npepps): 0.5; 1MT vs Control: 2-oxoglutarate dehydrogenase, mitochondrial (Q60597, GN = Ogdh): 0.4671; 1MT vs Control: Voltage-dependent anion-selective channel protein 3 (Q60931, GN = Vdac3): 0.2609; 1MT vs Control: Voltage-dependent anion-selective channel protein 1 (Q60932, GN = Vdac1): 0.3333; 1MT vs Control: Peroxiredoxin-2 (Q61171, GN = Prdx2): 0.7895; 1MT vs Control: Hydroxyacyl-coenzyme A dehydrogenase, mitochondrial (Q61425, GN = Hadh): 0.6364; 1MT vs Control: Alpha-2-macroglobulin (Q61838, GN = A2m): 0.6316; 1MT vs Control: Striated muscle-specific serine/threonine-protein kinase (Q62407, GN = Speg): 0.6667; 1MT vs Control: 10 kDa heat shock protein, mitochondrial (Q64433, GN = Hspe1): 0.4; 1MT vs Control: Glycerol-3-phosphate dehydrogenase, mitochondrial (Q64521, GN = Gpd2): 0.3077; 1MT vs Control: Trifunctional purine biosynthetic protein adenosine-3 (Q64737, GN = Gart): 0.8; 1MT vs Control (protein A2AUC9 Kelch-like protein 41, GN=Klhl41): 1.077; 1MT vs Control (protein O08539 Myc box-dependent-interacting protein 1, GN=Bin1): 1.064; 1MT vs Control (protein O70209 PDZ and LIM domain protein 3, GN=Pdlim3): 1.412; 1MT vs Control (protein P04117 Fatty acid-binding protein, adipocyte, GN=Fabp4): 1.1; 1MT vs Control (protein P05064 Fructose-bisphosphate aldolase A, GN=Aldoa): 1.096; 1MT vs Control (protein P05132 cAMP-dependent protein kinase catalytic subunit alpha, GN=Prkaca): 1; 1MT vs Control (protein P07309 Transthyretin, GN=Ttr): 2.5; 1MT vs Control (protein P07310 Creatine kinase M-type, GN=Ckm): 1.182; 1MT vs Control (protein P07758 Alpha-1-antitrypsin 1-1, GN=Serpina1a): 1.091; 1MT vs Control (protein P08228 Superoxide dismutase [Cu—Zn], GN=Sod1): 1.273; 1MT vs Control (protein P09103 Protein disulfide-isomerase, GN=P4hb): 1.077; 1MT vs Control (protein P09411 Phosphoglycerate kinase 1, GN=Pgk1): 1.089; 1MT vs Control (protein P10637 Microtubule-associated protein tau, GN=Mapt): 3; 1MT vs Control (protein P10649 Glutathione S-transferase Mu 1, GN=Gstm1): 1.152; 1MT vs Control (protein P13412 Troponin I, fast skeletal muscle, GN=Tnni2): 1.5; 1MT vs Control (protein P13707 Glycerol-3-phosphate dehydrogenase [NAD(+)], cytoplasmic, GN=Gpd1): 1.072; 1MT vs Control (protein P14231 Sodium/potassium-transporting ATPase subunit beta-2, GN=Atp1b2): 1; 1MT vs Control (protein P15626 Glutathione S-transferase Mu 2, GN=Gstm2): 1.111; 1MT vs Control (protein P16858 Glyceraldehyde-3-phosphate dehydrogenase, GN=Gapdh): 1.167; 1MT vs Control (protein P17182 Alpha-enolase, GN=Eno1): 1.039; 1MT vs Control (protein P17742 Peptidyl-prolyl cis-trans isomerase A, GN=Ppia): 1.176; 1MT vs Control (protein P17751 Triosephosphate isomerase, GN=Tpi1): 1.136; 1MT vs Control (protein P18826 Phosphorylase b kinase regulatory subunit alpha, skeletal muscle isoform, GN=Phka1): 1.143; 1MT vs Control (protein P20029 78 kDa glucose-regulated protein, GN=Hspa5): 1.522; 1MT vs Control (protein P21550 Beta-enolase, GN=Eno3): 1.063; 1MT vs Control (protein P22599 Alpha-1-antitrypsin 1-2, GN=Serpina1b): 1.028; 1MT vs Control (protein P23506 Protein-L-isoaspartate(D-aspartate) O-methyltransferase, GN=Pcmt1): 1; 1MT vs Control (protein P23953 Carboxylesterase 1C, GN=Ces1c): 1.08; 1MT vs Control (protein P26043 Radixin, GN=Rdx): 1.267; 1MT vs Control (protein P26883 Peptidyl-prolyl cis-trans isomerase FKBP1A, GN=Fkbp1a): 1.5; 1MT vs Control (protein P27546 Microtubule-associated protein 4, GN=Map4): 3; 1MT vs Control (protein P28474 Alcohol dehydrogenase class-3, GN=Adh5): 1.176; 1MT vs Control (protein P28654 Decorin, GN=Dcn): 1.36; 1MT vs Control (protein P29699 Alpha-2-HS-glycoprotein, GN=Ahsg): 1.111; 1MT vs Control (protein P31001 Desmin, GN=Des): 1.133; 1MT vs Control (protein P45376 Aldose reductase, GN=Akr1b1): 1.064; 1MT vs Control (protein P45591 Cofilin-2, GN=Cfl2): 1; 1MT vs Control (protein P47791 Glutathione reductase, mitochondrial, GN=Gsr): 1.25; 1MT vs Control (protein P47857 ATP-dependent 6-phosphofructokinase, muscle type, GN=Pfkm): 1.013; 1MT vs Control (protein P50396 Rab GDP dissociation inhibitor alpha, GN=Gdi1): 1.1875; 1MT vs Control (protein P51885 Lumican, GN=Lum): 1.231; 1MT vs Control (protein P58252 Elongation factor 2, GN=Eef2): 1.092; 1MT vs Control (protein P62631 Elongation factor 1-alpha 2, GN=Eef1a2): 1.256; 1MT vs Control (protein P62908 40S ribosomal protein S3, GN=Rps3): 1; 1MT vs Control (protein P63005 Platelet-activating factor acetylhydrolase IB subunit alpha, GN=Pafah1b1): 1.25; 1MT vs Control (protein P63017 Heat shock cognate 71 kDa protein, GN=Hspa8): 1.016; 1MT vs Control (protein P68134 Actin, alpha skeletal muscle, GN=Acta1): 1.126; 1MT vs Control (protein P70296 Phosphatidylethanolamine-binding protein 1, GN=Pebp1): 1.024; 1MT vs Control (protein P70402 Myosin-binding protein H, GN=Mybph): 1.156; 1MT vs Control (protein P82349 Beta-sarcoglycan, GN=Sgcb): 1; 1MT vs Control (protein P97384 Annexin A11, GN=Anxa11): 1.375; 1MT vs Control (protein Q3TJD7 PDZ and LIM domain protein 7, GN=Pdlim7): 1.111; 1MT vs Control (protein Q3TVI8 Pre-B-cell leukemia transcription factor-interacting protein 1, GN=Pbxip1): 1; 1MT vs Control (protein Q3TXS7 26S proteasome non-ATPase regulatory subunit 1, GN=Psmd1): 1.333; 1MT vs Control (protein Q3U0V1 Far upstream element-binding protein 2, GN=Khsrp): 1; 1MT vs Control (protein Q3UZA1 CapZ-interacting protein, GN=Rcsd1): 1.2; 1MT vs Control (protein Q5SX39 Myosin-4, GN=Myh4): 1.106; 1MT vs Control (protein Q7TSH2 Phosphorylase b kinase regulatory subunit beta, GN=Phkb): 1.083; 1MT vs Control (protein Q8BGQ7 Alanine--tRNA ligase, cytoplasmic, GN=Aars): 1.5; 1MT vs Control (protein Q8BU85 Methionine-R-sulfoxide reductase B3, mitochondrial, GN=Msrb3): 2.5; 1MT vs Control (protein Q8C7E7 Starch-binding domain-containing protein 1, GN=Stbd1): 1; 1MT vs Control (protein Q8CGC7 Bifunctional glutamate/proline--tRNA ligase, GN=Eprs): 1.333; 1MT vs Control (protein Q8CHP8 Phosphoglycolate phosphatase, GN=Pgp): 1; 1MT vs Control (protein Q8CHS7 Dehydrogenase/reductase SDR family member 7C, GN=Dhrs7c): 2.667; 1MT vs Control (protein Q8CHT0 Delta-1-pyrroline-5-carboxylate dehydrogenase, mitochondrial, GN=Aldh4a1): 1; 1MT vs Control (protein Q8K4Z3 NAD(P)H-hydrate epimerase, GN=Apoa1bp): 1; 1MT vs Control (protein Q8R1G2 Carboxymethylenebutenolidase homolog, GN=Cmbl): 1.235; 1MT vs Control (protein Q8VCM7 Fibrinogen gamma chain, GN=Fgg): 1.25; 1MT vs Control (protein Q8VHX6 Filamin-C, GN=Flnc): 1.059; 1MT vs Control (protein Q9CPU0 Lactoylglutathione lyase, GN=Glo1): 1.095; 1MT vs Control (protein Q9CZ30 Obg-like ATPase 1, GN=Ola1): 3.25; 1MT vs Control (protein Q9D7X3 Dual specificity protein phosphatase 3, GN=Dusp3): 1.5; 1MT vs Control (protein Q9D8N0 Elongation factor 1-gamma, GN=Eef1g): 1.1; 1MT vs Control (protein Q9D172 ES1 protein homolog, mitochondrial, GN=D10Jhu81e): 1.2; 1MT vs Control (protein Q9ESD7 Dysferlin, GN=Dysf): 3; 1MT vs Control (protein Q9ET78 Junctophilin-2, GN=Jph2): 1.381; 1MT vs Control (protein Q9ET80 Junctophilin-1, GN=Jph1): 1.143; 1MT vs Control (protein Q9JKB3 Y-box-binding protein 3, GN=Ybx3): 1.333; 1MT vs Control (protein Q9JKS4 LIM domain-binding protein 3, GN=Ldb3): 1.037; 1MT vs Control (protein Q9QYG0 Protein NDRG2, GN=Ndrg2): 1.015; 1MT vs Control (protein Q9R0Y5 Adenylate kinase isoenzyme 1, GN=Ak1): 1.133; 1MT vs Control (protein Q9R062 Glycogenin-1, GN=Gyg1): 1.538; 1MT vs Control (protein Q9WUZ7 SH3 domain-binding glutamic acid-rich protein, GN=Sh3bgr): 1.057; 1MT vs Control (protein Q9Z1Z2 Serine-threonine kinase receptor-associated protein, GN=Strap): 1.5; 1MT vs Control (protein Q9Z2U0 Proteasome subunit alpha type-7, GN=Psma7): 3; 1MT vs Control (protein Q70KF4 Cardiomyopathy-associated protein 5, GN=Cmya5): 1; 1MT vs Control (protein Q76MZ3 Serine/threonine-protein phosphatase 2A 65 kDa regulatory subunit A alpha isoform, GN=Ppp2r1a): 1.125; 1MT vs Control (protein Q91VI7 Ribonuclease inhibitor, GN=Rnh1): 1.111; 1MT vs Control (protein Q91YE8 Synaptopodin-2, GN=Synpo2): 1.077; 1MT vs Control (protein Q99LX0 Protein deglycase DJ-1, GN=Park7): 1.194; 1MT vs Control (protein Q99PR8 Heat shock protein beta-2, GN=Hspb2): 1.5; 1MT vs Control (protein Q924M7 Mannose-6-phosphate isomerase, GN=Mpi): 1.111; 1MT vs Control (protein Q04857 Collagen alpha-1(VI) chain, GN=Col6a1): 1.5; 1MT vs Control (protein Q60864 Stress-induced-phosphoprotein 1, GN=Stip1): 1.167; 1MT vs Control (protein Q61292 Laminin subunit beta-2, GN=Lamb2): 1; 1MT vs Control (protein Q61584 Fragile X mental retardation syndrome-related protein 1, GN=Fxr1): 1; 1MT vs Control (protein Q62234 Myomesin-1, GN=Myom1): 1.113; 1MT vs Control (protein Q62446 Peptidyl-prolyl cis-trans isomerase FKBP3, GN=Fkbp3): 1.429; 1MT vs Control (protein Q64105 Sepiapterin reductase, GN=Spr): 1.5; 1MT vs Control (protein Q64727 Vinculin, GN=Vcl): 1.333
